“And” between values parts separate entries of the source, which are not always exact repeats. Equal values may be shown once.
Experiments:
[1] = Plasma exposure of AZ’6421 and metabolite 8 in CTC174 PDX mice (free, cover over DC90); type: in vivo, mouse
Method: Mice were randomised into groups of 5 once tumour sizes reached approximately 0.3 to 0.4 cm^3. A vehicle control or AZ’6421 1, 3, 10, 30, and 100 mg/kg were dosed orally, once daily (QD) or twice daily (BID) in 5% v/v DMSO, 20% v/v Solutol HS15 in purified water formulation. AZD9833 was dosed once daily at 100 mg/kg in 40% TEG/60% (of 12.5%) SBE-β-CD formulation. Mice were dosed for 4 days and tumours were harvested 6 hours after the last dose. Tumour tissue was split into 3 and immediately snap-frozen in liquid nitrogen for subsequent analysis. Plasma samples were also taken at the end of the study by terminal cardiac bleed under isoflurane anaesthesia to measure pharmacokinetics and ensure the expected exposure was reached during the dosing period.
Each plasma sample ([…]) was prepared using an appropriate dilution factor, and compared against an 11-point standard calibration curve (1-10000 nM) prepared in DMSO and spiked into blank plasma. Acetonitrile ([…]) was added with the internal standard, followed by centrifugation at 3000 rpm for 10 minutes. The supernatant ([…]) was then diluted in […] acetonitrile:water (75:25) and analyzed via UPLC-MS/MS.
The MS/MS instrument used was either a Waters XEVO® TQ-S, Waters XEVO® TQ-D, or API 4000 (AB Sciex). The ultra-mass spectrometer used for sample analysis was completed in the MRM mode (MS/MS). Reverse-phase HPLC with a C18 column was used to separate the analytes. A mobile phase of 99% water/0.1% formic acid (solvent A) and a solvent phase of 99% acetonitrile/0.1% formic acid (solvent B) was used. A generic LC gradient elution was used at a flow rate of 0.5 mL/min with 95% solvent A and 5% solvent B for 0.3 min after which the concentration of solvent B was increased to 95% over 0.9 min before restoring it back to 5% for the remaining 0.5 min. Mass spectrometer methods were optimised for each compound.

[2] = target: T1, recombinant human ERα ligand binding domain (LBD) (Homo sapiens, UniProt P03372); assay: ERα binding assay (LanthaScreen TR-FRET competition); conditions: mean ± s.d.; read-out: ERα binding IC50
T1 construct: purchased Invitrogen PV4543
T1 sequence (P03372 311-547 limits assumed): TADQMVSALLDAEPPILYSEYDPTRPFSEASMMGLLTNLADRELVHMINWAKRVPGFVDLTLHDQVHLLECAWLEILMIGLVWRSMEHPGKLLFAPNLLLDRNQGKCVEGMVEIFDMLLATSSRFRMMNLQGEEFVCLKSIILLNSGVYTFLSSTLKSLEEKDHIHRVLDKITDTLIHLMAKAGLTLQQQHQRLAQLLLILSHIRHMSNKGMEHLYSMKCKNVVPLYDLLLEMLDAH
Method: The ability of compounds to bind to isolated ERα Ligand binding domain (ERα–LBD (GST)) was assessed in competition assays using a LanthaScreenTM Time-Resolved Fluorescence Resonance Energy Transfer (TR-FRET) detection end-point. For the LanthaScreen TR-FRET endpoint, a suitable fluorophore (Fluormone ES2, Product code P2645) and recombinant human ERα ligand binding domain (LBD) (product code PV4543) were purchased from Invitrogen and used to measure compound binding. A terbium-labelled anti-GST antibody (Product code PV3551) is used to indirectly label the receptor by binding to its GST tag, and competitive binding is detected by a test compounds’ ability to displace the fluorescent ligand resulting in a loss of TR-FRET signal between the Tb-anti-GST antibody and the tracer. The assay was performed with all reagent additions carried out using the Beckman Coulter BioRAPTR FRD microfluidic workstation: […]

[3] = Plasma protein binding (RED device), mouse plasma; type: in vitro ADME; conditions: for Mouse fup: fraction unbound in plasma; for Mouse fup, Free: fraction free
Method: Plasma protein binding was completed using a RED device. The test compound was prepared to 1 mM in 100% DMSO and further diluted in plasma to achieve a final compound concentration of 5 μM in the incubation. Phosphate buffered solution pH 7.4 (500 μL) was added to the receiver chamber of the RED device and spiked plasma (300 μL) was added to the donor chamber. The plate was covered with a gas-permeable lid and incubated for 18 h at 37 °C with 5% CO2 on an orbital shaker at 300 rpm. At the end of incubation, 50 μL of post-dialysis sample from the donor and receiver wells were aliquot into separate wells and matrix-matched with 50 μL of phosphate buffer solution pH 7.4 or blank plasma, respectively. The samples were subsequently quenched separately in 400 μL of ice-cold 100% acetonitrile. Quenched samples were shaken at 1000 rpm for 10 min and centrifuged for 30 min at 4000 rpm to pellet precipitated protein. The supernatant fraction was further diluted 1:1 with deionised water for analysis by LC MS/MS[17].

PR expression = assay: ER agonism: PR expression in Ishikawa cells by western blot; type: cell-based; conditions: for PR expression (% vs 10 nM E2): 100 nM compound, individual replicates; for PR expression in the Ishikawa endometrial cell line: 100 nM, 48 h
Method: Fig. 8 Evidence of ER agonism of AZ’6421 and compound 8 in vitro and in vivo. a 100 nM compound or 10 nM estradiol (E2) were incubated with Ishikawa cells for 48 h and lysates measured for PR expression by western blot. b Normalised rat uterine weight shown as % change from respective vehicle control after 4 days dosing. c Representative H&E stained images taken from sections of uterine horn after 4 days of dosing. d Total plasma exposure of AZ’6421 and its metabolite 8 following dosing of 100 mg/kg BID or 30 mg/kg BID AZ’6421. Plasma samples were taken 4 hr after the 4th dose, at the same time as the uterus was weighed and sectioned for H&E staining.
Cells were seeded into 12-well tissue culture-treated plates at 0.5 x 10^6 cells/well in phenol red-free RPMI containing 5% (v/v) charcoal-stripped FBS (F6765, Sigma) and left to adhere overnight. In experiments to detect agonism or for SILAC experiments, FBS was double stripped using activated charcoal. Cells were treated with compound or 0.1% DMSO vehicle control for the times indicated prior to being lysed in Pierce RIPA buffer (Thermo Scientific), supplemented with protease and phosphatase inhibitors. Expression levels of proteins were determined by standard western blotting techniques (BioRad 4%-12% Bis-Tris gels). Antibodies were diluted in 5% milk-PBS-Tween and protein levels were detected using Pierce WestDura chemiluminescent reagents followed by visualisation and quantification on a Syngene ChemiGenius Imager. Where blots were quantified, protein levels were normalised to beta-actin or vinculin control and expressed as % of vehicle control.

Row | SMILES | cover for target engagement by plasma drug concentration ([1]; 100 mg/kg dose) | fraction converted to 8 within 2 hours ([1]; 100 mg/kg, from Fig. 6d) | IC50 [2] | free in mouse plasma [3] | Mouse fup [3] | Mouse fup, Free ([3]; mouse plasma) | PR expression (% vs 10 nM E2) (PR expression; listed as AZ'6421) | PR expression in the Ishikawa endometrial cell line (PR expression) | free plasma concentration, fold above the compounds DC90 ([1]; AZ’6421 efficacy study) | free plasma concentration, fold higher than free AZ’6421 ([1]; steady state, AZ’6421 efficacy study) | difference in the free levels vs AZ’6421 ([3]; mouse plasma) | PR expression (% vs 10 nM E2) (PR expression)
1 | Cc1ncsc1-c1ccc(CNC(=O)[C@@H]2C[C@@H](O)CN2C(=O)[C@@H](NC(=O)COCCCOCCCOc2cc(F)c([C@@H]3c4[nH]c5ccccc5c4C[C@@H](C)N3CC(C)(C)F)c(F)c2)C(C)(C)C)cc1 [Compound 5] | free plasma exposure > free DC90 | 7% | < 0.6 nM | 0.02% | 0.0002 (1) | 0.0002 | 0.39% and 0.32% | failed to induce PR expression |  |  |  | 
2 | C[C@@H]1Cc2c([nH]c3ccccc23)[C@@H](c2c(F)cc(OCCC(=O)O)cc2F)N1CC(C)(C)F [Compound 8] |  |  | < 0.5 nM | 0.5% | 0.005 (1) | 0.005 |  | induced PR expression to a similar extent as AZD9496 | > 10 fold | ~ 10 fold | 25 fold | 4.18% and 6.31%

— article PMC11091220, “Metabolism-driven in vitro/in vivo disconnect of an oral ERɑ VHL-PROTAC” (Communications Biology, 2024)
